# Assay results from US6413974B1, “6,9,-disubstituted 2-[trans-(4-aminocyclohexyl) amino] purines” (Aventis Pharmaceuticals Inc., priority 1998, dated 2002).
# pIC50: −log10 of the molar value. Several values for one entry are separate records, joined by “and”; a condition that tells them apart may be missing. Equal values may be shown once. Where a name gives a salt, the structure may show the parent alone. Read-outs that look alike come from different tables or passages of the source.
# What was measured:
# MCF-7 = assay: In vitro tumor cell proliferation, MCF-7; type: cell-based, human; details: read-out: In vitro Tumor Cell Proliferation (IC50, μM) Breast MCF-7
# Experimental: (§1) The proliferation of tumor cells was measured using a sulforhodamine B assay as described in Skehan, P., et al., J. Natl. Cancer Inst. […] Tumor cells were harvested with trypsin-EDTA, cells that excluded trypan blue were counted, added to 96-well plates and incubated overnight at 37° C. Drug was added to the wells following dilution in culture medium. Three days later, the medium was removed and replenished with medium containing fresh drug and incubated an additional 4 days. The cells were then fixed with 0.1 ml 10% trichloroacetic acid for 60 min at 4° C. The plates were rinsed five times with tap water, air-dried and stained for 30 min with 0.4% sulforhodamine B in 1% acetic acid and air-dried.
# (§2) Alternatively, the CyQUANT cell proliferation assay was used to quantify tumor cell proliferation. Tumor cells were harvested with trypsin-EDTA, cells that excluded trypan blue were counted, added to 96-well plates and incubated overnight at 37° C. Drug was added to the wells following dilution in culture medium. Three days later the medium was removed and the plates frozen at −80° C. for at least 30 minutes.
# MCF7 is a human breast adenocarcinoma, hormone-dependent (HTB 22);
# cdk2/cyclin E = target: T1, cdk2/cyclin E (Homo sapiens, UniProt P24941); assay: Cyclin-Dependent Kinase 2 Assay (cdk-2 inhibition); type: biochemical; details: GST-Rb substrate, 30 min at 30° C.
# T1 construct: made in house; host or cells: insect cells (baculovirus co-infection)
# Summary of the method: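 GST-Rb bound to glutathione-Sepharose beads (0.5 μg/well) as substrate in 50 mM HEPES pH 7.5, 10 mM MgCl2, 1 mM EGTA. Recombinant cdk2/cyclin E at 0.1 μg per 100 μl, 30 min at 30 °C. Reaction stopped by filtration, TNEN washes, scintillation counting.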
# MDA-MB-231 = assay: In vitro tumor cell proliferation, MDA-MB-231; type: cell-based, human; details: read-out: In vitro Tumor Cell Proliferation (IC50, μM) Breast MDA-MB-231
# Summary of the method: (§3)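 Viable (trypan blue-excluding) cells plated and left overnight at 37° C, then exposed to drug for 3 days, refed with fresh drug-containing medium for 4 more days. TCA-fixed cells stained with 0.4% sulforhodamine B; alternatively, CyQUANT read after 3 days of drug and freezing at −80° C.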
# PC-3 = assay: In vitro tumor cell proliferation, PC-3; type: cell-based, human; details: read-out: In vitro Tumor Cell Proliferation (IC50, μM) Prostate PC-3
# Summary of the method: as §3
# DMS-114 = assay: In vitro tumor cell proliferation, DMS-114; type: cell-based, human; details: read-out: In vitro Tumor Cell Proliferation (IC50, μM) Lung DMS-114
# Summary of the method: as §3
# HT-29 = assay: In vitro tumor cell proliferation, HT-29; type: cell-based, human; details: read-out: In vitro Tumor Cell Proliferation (IC50, μM) Colon HT-29 (converted)
# Summary of the method: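 HT-29 human colon adenocarcinoma cells plated overnight at 37° C., then exposed to drug for 3 days, medium with fresh drug replaced for a further 4 days. Cells fixed with 10% TCA and stained with 0.4% sulforhodamine B; alternatively, CyQUANT read after 3 days of drug exposure.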
# cdk4/cyclin D1 = target: T2, cdk4/cyclin D1 (Homo sapiens, UniProt P11802); assay: Cyclin-dependent kinase 4 Assay; type: biochemical; details: cdk4/cyclin D1, GST-Rb substrate, 10 μM ATP, 30 min at 37° C.; read-out: CDK4 Inhibition IC50
# T2 construct: made in house; host or cells: Sf9 insect cells (Bac-to-Bac baculovirus, pFastBac)
# T2 sequence (P11802 whole entry): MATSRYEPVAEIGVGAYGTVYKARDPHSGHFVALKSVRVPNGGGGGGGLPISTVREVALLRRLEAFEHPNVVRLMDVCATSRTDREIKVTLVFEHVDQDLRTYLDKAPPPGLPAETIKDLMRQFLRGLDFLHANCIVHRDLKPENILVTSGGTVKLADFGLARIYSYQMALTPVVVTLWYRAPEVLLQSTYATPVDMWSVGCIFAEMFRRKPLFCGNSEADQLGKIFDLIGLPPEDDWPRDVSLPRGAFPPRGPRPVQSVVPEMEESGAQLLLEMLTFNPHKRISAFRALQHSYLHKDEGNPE
# T2 sequence (P24385 whole entry partner): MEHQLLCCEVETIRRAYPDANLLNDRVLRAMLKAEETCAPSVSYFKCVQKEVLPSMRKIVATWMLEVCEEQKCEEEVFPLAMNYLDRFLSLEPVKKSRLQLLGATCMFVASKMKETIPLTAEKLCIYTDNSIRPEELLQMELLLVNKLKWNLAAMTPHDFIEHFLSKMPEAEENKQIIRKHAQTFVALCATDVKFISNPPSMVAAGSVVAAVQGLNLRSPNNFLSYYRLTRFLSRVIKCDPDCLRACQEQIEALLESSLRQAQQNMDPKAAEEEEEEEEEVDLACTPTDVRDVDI
# Summary of the method: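 Insect-cell lysate of coexpressed human cdk4/cyclin D1 (0.1 μg) phosphorylated bead-bound GST-Rb (0.5 μg) in 50 mM HEPES pH 7.5, 10 mM MgCl2, 1 mM EGTA for 30 min at 37 °C. Filters were washed with TNEN and scintillation-counted; IC50 values derived.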
# A549 = assay: In vitro tumor cell proliferation, A549; type: cell-based, human; details: read-out: In vitro Tumor Cell Proliferation (IC50, μM) Lung A549
# Summary of the method: as §3
# HCT-15 = assay: In vitro tumor cell proliferation, HCT-15; type: cell-based, human; details: read-out: In vitro Tumor Cell Proliferation (IC50, μM) Colon HCT-15
# Experimental: as §1, §2
# DU 145 = assay: In vitro tumor cell proliferation, DU 145; type: cell-based, human; details: read-out: In vitro Tumor Cell Proliferation (IC50, μM) Prostate DUI45
# Summary of the method: as §3
# [1] = Homo sapiens, MCF7, values without *
# [2] = values without *, dihydrochloride
# [3] = Homo sapiens, MDA-MB-231, values without *
# [4] = Homo sapiens, PC-3, values without *
# [5] = Homo sapiens, DMS-114, values without *
# [6] = Homo sapiens, HT-29, values without *
# [7] = Homo sapiens, A549, values without *
# [8] = Homo sapiens, HCT-15, values without *
# [9] = Homo sapiens, DU-145, values without *
Compound,IC50 (MCF-7; [1]) [µM],IC50 (MCF-7; [2]) [µM],pIC50 (cdk2/cyclin E),IC50 (MDA-MB-231; [3]) [µM],IC50 (MDA-MB-231; [2]),IC50 (PC-3; [4]) [µM],IC50 (PC-3; [2]),IC50 (DMS-114; [5]) [µM],IC50 (DMS-114; [2]),IC50 (HT-29; [6]) [µM],IC50 (HT-29; [2]),pIC50 (cdk4/cyclin D1),IC50 (A549; [7]) [µM],IC50 (A549; [2]),IC50 (HCT-15; [8]) [µM],IC50 (HCT-15; [2]),IC50 (DU 145; [9]) [µM],IC50 (DU 145; [2])
"N[C@H]1CC[C@H](Nc2nc(NCC3CCCCO3)c3ncn(C4CCCC4)c3n2)CC1 (relative stereo) [Example 30, 2-[Trans-(4-aminocyclohexyl)amino]-6-[(2-tetrahydropyranyl)methylamino]-9-cyclopentylpurine dihydrochloride]",2.5,3.1,6.90,6.4,8.6 µM,1.9,2.3 µM,2.9,3.7 µM,5.3,7.9 µM,6.22,2.5,3.1 µM,21,22 µM,3.3,4 µM
"N[C@H]1CC[C@H](Nc2nc(NCC3CCCCC3)c3ncn(C4CCCC4)c3n2)CC1 [Example 22, 2-[Trans-(4-aminocyclohexyl)amino]-6-[(cyclohexyl)methylamino]-9-cyclopentylpurine dihydrochloride]",,,6.28,8.6,,,,9,,16,12 µM,4.62 and 4.20,8,,17,15 µM,7.5,11 µM
"CC(C)n1cnc2c(NCC3CC3)nc(N[C@H]3CC[C@H](N)CC3)nc21 [Example 32, 2-[Trans-(4-aminocyclohexyl)amino]-6-[(cyclopropyl)methylamino]-9-(2-propyl)purine dihydrochloride]",9.3,5.3,6.68 and 7.02,16,8.1 µM,9.7,6.9 µM,,,,11 µM,,,10 µM,> 20,24 µM,17,10 µM
"N[C@H]1CC[C@H](Nc2nc(NCC3CC3)c3ncn(C4CCCC4)c3n2)CC1 [Example 34, 2-[Trans-(4-aminocyclohexyl)amino]-6-[(cyclopropyl)methylamino]-9-cyclopentylpurine dihydrochloride]",,,7.62,1.2,2.2 µM,,,1.5,1.4 µM,1.3,2.6 µM,6.03 and 6.19,1.9,1.2 µM,3.3,3.4 µM,0.97,1.7 µM

# Second part, the molecule after the results:
IC50 (MCF-7; [1]) [µM],IC50 (MCF-7; [2]) [µM],pIC50 (cdk2/cyclin E),IC50 (MDA-MB-231; [3]) [µM],IC50 (MDA-MB-231; [2]),IC50 (PC-3; [4]) [µM],IC50 (PC-3; [2]),IC50 (DMS-114; [5]) [µM],IC50 (DMS-114; [2]),IC50 (HT-29; [6]) [µM],IC50 (HT-29; [2]),pIC50 (cdk4/cyclin D1),IC50 (A549; [7]) [µM],IC50 (A549; [2]),IC50 (HCT-15; [8]) [µM],IC50 (HCT-15; [2]),IC50 (DU 145; [9]) [µM],IC50 (DU 145; [2]),Compound
,,6.82,7.4,,5.8,4.2 µM,4.5,7.1 µM,8.2,11 µM,4.96 and 5.13,,,11,,4.8,8 µM,"Cc1cccc(CNc2nc(N[C@H]3CC[C@H](N)CC3)nc3c2ncn3C2CCCC2)c1 [Example 11, 2-[Trans-(4-aminocyclohexyl)amino]-6-[(3-methylbenzyl)amino]-9-cyclopentylpurine dihydrochloride]"
,,6.36,7,,8.7,,9.5,6.8 µM,16,,4.77 and 5.05,8.4,11 µM,,15 µM,7.2,11 µM,"N[C@H]1CC[C@H](Nc2nc(NCc3ccc(Cl)cc3)c3ncn(C4CCCC4)c3n2)CC1 [Example 27, 2-[Trans-(4-aminocyclohexyl)amino]-6-[(4-chlorobenzyl)amino]-9-cyclopentylpurine dihydrochloride]"
,,7.49,1.1,1.6 µM,,,0.52,0.63 µM,2.4,1.5 µM,6.28,0.92,1.3 µM,3.8,2.9 µM,0.8,0.92 µM,"N[C@H]1CC[C@H](Nc2nc(NCc3cccc(Cl)c3)c3ncn(C4CCCC4)c3n2)CC1 [Example 29, 2-[Trans-(4-aminocyclohexyl)amino]-6-[(3-chlorobenzyl)amino]-9-cyclopentylpurine dihydrochloride]"
1.7,3.3,6.72,3.1,3.5 µM,,,2.3,2 µM,1.6,3.2 µM,5.51 and 6.00,2.01,3.6 µM,4.2,3.6 µM,2,3.5 µM,"N[C@H]1CC[C@H](Nc2nc(NCc3ccc(Cl)cc3F)c3ncn(C4CCCC4)c3n2)CC1 [Example 40, 2-[Trans-(4-aminocyclohexyl)amino]-6-[(4-chloro-2-fluorobenzyl)amino]-9-cyclopentylpurine dihydrochloride]"
1,1.7,,,,0.93,1.3 µM,,1.3 µM,2.2,2.7 µM,,1.7,,5.5,6.1 µM,,,"N[C@H]1CC[C@H](Nc2nc(NCc3ccccc3)c3ncn(C4CCCC4)c3n2)CC1 [Example 47, 2-[Trans-(4-aminocyclohexyl)amino]-6-[benzylamino]-9-cyclopentylpurine dihydrochloride]"
,,6.10,3,3.1 µM and 2 µM and 1.8 µM,2,1.9 µM and 1.6 µM,1.8,1.9 µM and 2 µM and 1.4 µM,2.8,2.7 µM and 2.4 µM,5.36 and 5.28,2.2,2.3 µM and 2.1 µM,3.1,3.7 µM and 3.4 µM,3.2,3.4 µM and 2.8 µM and 2.5 µM,"N[C@H]1CC[C@H](Nc2nc(NCc3ccc(Cl)cc3Cl)c3ncn(C4CCCC4)c3n2)CC1 [Example 48, 2-[Trans-(4-aminocyclohexyl)amino]-6-[(2,4-dichlorobenzyl)amino]-9-cyclopentylpurine dihydrochloride]"
1.9,3.3,7.03,3.2,4.5 µM,2,2.3 µM,3.7,2.4 µM,4,4.8 µM,5.11 and 5.51,,,7.4,7.7 µM,1.9,3.3 µM,"N[C@H]1CC[C@H](Nc2nc(NCc3ccc(F)cc3)c3ncn(C4CCCC4)c3n2)CC1 [Example 50, 2-[Trans-(4-aminocyclohexyl)amino]-6-[(4-fluorobenzyl)amino]-9-cyclopentylpurine dihydrochloride]"
